# Data published in patent US7601754B2, “Flavonoid compounds as therapeutic antioxidants” (Antoxis Limited, priority 2002, dated 2009).
# Where “and” joins values, the source holds several entries; their conditions need not be identical. Equal entries are not always repeated.
# Tests used:
# [1] = tested on: rat liver microsomes from vitamin E-deficient rats; experiment: Inhibition of TBARS production in rat liver microsomes from vitamin E-deficient rats; type: biochemical; conditions: for TBARS production (Mean): after 20 minutes incubation with Fe(II)-ADP/ascorbate, normalised to a tocopherol reading of 20, 30 minutes pre-incubation, higher reading = lower protection; for membrane protection against TBARS production (in words): over the 20 minute oxidation period
# Protocol: Inhibition of TBARS production in rat liver microsomes from vitamin E-deficient rats by pre-incubation with target antioxidant and related compounds. Microsomes are subcellular fractions containing membrane fragments. In vitamin E-deficient rats, microsomes are especially prone to oxidative free radical damage. This can be quantified in terms of the production of thiobarbituric acid reactive substances (TBARS) which result from radical-mediated destruction of the polyunsaturated fatty acid constituents. Consequently, this is a useful biological model to determine the efficacy of phytochemicals as antioxidant membrane protectants. Vitamin E-deficient microsomal suspensions were incubated for 30 minutes with one of myricetin, sample A, sample B, sample C (as shown below) or d-alpha-tocopherol, or with a compound 9c, 9d, 9e, 9e*, 9f, 9g, 9g*, 9h, 9i* or 9j (prepared as described above in Examples 1 to 10). […] TBARS production was then measured by HPLC.
# [2] = Solubility in octanol; type: physicochemical
# [3] = Kinetic measurements: stopped-flow ESR, reduction of galvinoxyl radical; type: physicochemical; conditions: for Second order rate constants (k2) for the reduction of galvinoxyl radical / reactivity with galvinoxyl (in words): ethanol; for Second order rate constants (k2) for the reduction of galvinoxyl radical: 20° C.±2° C., flavonoid 0.2 mM + galvinoxyl 0.2 mM, unit printed only in b437; for decrease in rate of reaction with galvinoxyl relative to quercetin: fold decrease, versus quercetin; for reactivity with galvinoxyl (in words): kinetics of reduction
# Protocol: (§1) Within a biological system where a number of polyphenols may be present at similar concentrations, antioxidant efficacy may be predominantly governed by reaction kinetics rather than stoichiornetry. Consequently, the antioxidant potential of thirteen flavonoids and vitamin E were assessed and their kinetic and stochiometric reduction of a synthetic radical using stopped-flow electron spin resonance (ESR) spectroscopy has been compared. The radical used was galvinoxyl (Galv-O°), (2,6-di-tert-butyl-α-(3,5-di-tert-butyl-4-oxo-2,5-cyclohexadien-1-ylidene)-p-tolyloxy) shown below:
# Galv-O°+Phenol-OH≈Galv-OH+phenol-O°
# The process is governed by the O—H bond dissociation enthalpy of the donor.
# Ethanolic solutions of flavonoid (0.2 mM) and galvinoxyl (0.2 mM) were de-oxygenated under a stream of nitrogen gas. Aliquots (6 ml) were transferred to Hamilton gas-tight syringes (10 ml) coupled to a pneumatic ram and connected to a two-stream ESR quartz flow-cell. In situ reaction at 20° C.±2° C. between the flavonoid and galvinoxyl was initiated by rapidly evacuating the syringes. […] Decay curves were obtained by operating in timesweep mode with the static field set at the resonance maximum of the galvinoxyl signal.
# [4] = Stoichiometric measurements: ESR, reduction of excess galvinoxyl radical; type: physicochemical; conditions: galvinoxyl radicals reduced per molecule, ethanol, flavonoid 0.1 mM + galvinoxyl 0.5 mM, 5 minutes from mixing
# Protocol: as §1
# Ethanolic solutions of flavonoids (0.1 mM) were prepared. Aliquots (3 ml) of an ethanolic galvinoxyl solution (0.5 mM) were mixed with an equal volume of flavonoid solution then transferred to an ESR quartz cell. The spectra and reaction stoichiometry were evaluated. In brief, the spectra of the unreacted galvinoxyl were obtained 5 minutes from mixing, by which time equilibration was complete. The galvinoxyl concentrations remaining were calculated by double integration of the signal and comparing with the control experiment where ethanol was added to the galvinoxyl solution instead of flavonoid solution.
# The stoichiometry of the reaction of these compounds with the galvinoxyl free radical was determined by adding the flavonoid, or vitamin E, to an excess of the radical and allowing the reaction to proceed to the endpoint.
Compound,TBARS production (Mean) [1],Reaction Stoichiometry for the reduction of galvinoxyl radical [4],Second order rate constants (k2) for the reduction of galvinoxyl radical [3],further results
O=c1c(O)c(-c2cc(O)c(O)c(O)c2)oc2ccccc12 [Control B],236.525 and 236.5249,,,"membrane protection against TBARS production (in words) [1]: does not give rise to significant membrane protective effects; solubility in octanol (in words) [2]: very soluble in octanol; antioxidant activity by ESR (in words) ([3]; ESR, kinetic or stoichiometric not stated): retains potent antioxidant activity"
O=c1c(O)c(-c2ccc(O)c(O)c2O)oc2ccccc12 [Control D],172.0899,,,
"CCCCCCCCCCCCCCCCCCc1ccc2c(=O)c(O)c(-c3cc(O)c(O)c(O)c3)oc2c1 [compound 9j, 3-Hydroxy-7-octadecyl-2-(3,4,5-trihydroxy-phenyl)-chromen-4-one]",107.849,,,
O=c1c(O)c(-c2cc(O)c(O)c(O)c2)oc2cc(O)ccc12 [Control A],158.348,,,
O=c1c(O)c(-c2ccc(O)c(O)c2)oc2cc(O)cc(O)c12 [Quercetin],,3.27 ± 0.04,2383 ± 258 mol^−1 dm^3 s^−1,Reaction Stoichiometry for the reduction of galvinoxyl radical ([4]; listed as quercetin): 3.3; change of rate constant compared with luteolin (in words) ([3]; versus luteolin): doubling
O=C1c2c(O)cc(O)cc2O[C@H](c2ccc(O)c(O)c2)[C@H]1O (racemic) [Taxifolin],,2.82 ± 0.05,337 ± 32 mol^−1 dm^3 s^−1,"Reaction Stoichiometry for the reduction of galvinoxyl radical ([4]; listed as taxifolin): 2.8; decrease in rate of reaction with galvinoxyl relative to quercetin [3]: 7 fold; reduction in rate compared with catechin ([3]; fold reduction, versus catechin): 5 fold"
"CCCCc1ccc2c(=O)c(O)c(-c3cc(O)c(O)c(O)c3)oc2c1 [9d, 7-Butyl-3-hydroxy-2-(3,4,5-trihydroxy-phenyl)-chromen-4-one]",121.743,,,
"COc1cc(-c2oc3cc(O)cc(O)c3c(=O)c2O)cc(OC)c1OC [Tri-Ome-Myricetin, myricetin-3′,4′,5′-trimethylether]",,1.06 ± 0.02,74 ± 14 mol^−1 dm^3 s^−1,
O=c1cc(-c2ccc(O)c(O)c2)oc2cc(O)cc(O)c12 [Luteolin],,3.24 ± 0.01,1212 ± 45 mol^−1 dm^3 s^−1,
"CCCCCCCCCCc1ccc2oc(-c3cc(O)c(O)c(O)c3)c(O)c(=O)c2c1 [compound 11g, 6-Decyl-3-hydroxy-2-(3,4,5-trihydroxy-phenyl)-chromen-4-one]",81.82,,,
"CC(C)CCCC(C)CCCC(C)CCc1ccc2c(=O)c(O)c(-c3cc(O)c(O)c(O)c3)oc2c1 (stereo not shown) [compound 9i*, 3-Hydroxy-2-(3,4,5-trihydroxy-phenyl)-7-(3,7,11-trimethyl-dodecyl)-chromen-4-one]",32.9769,,,
O=c1c(O)c(-c2ccccc2O)oc2cc(O)cc(O)c12 [Datiscetin],,1.74 ± 0.02,22 ± 2 mol^−1 dm^3 s^−1,"Reaction Stoichiometry for the reduction of galvinoxyl radical ([4]; listed as datiscetin): ~1.8; Second order rate constants (k2) for the reduction of galvinoxyl radical ([3]; listed as datiscetin): 22 mol^−1 dm^3 s^−1; reduction in rate constant relative to kaempferol ([3]; fold reduction, versus kaempferol): 56 fold"
"CCc1ccc2c(=O)c(O)c(-c3cc(O)c(O)c(O)c3)oc2c1 [compound 9c, 7-Ethyl-3-hydroxy-2-(3,4,5-trihydroxy-phenyl)-chromen-4-one]",117.461,,,
CCCCCCCCCc1cccc2c(=O)c(O)c(-c3cc(O)c(O)cc3O)oc12 [compound 14],104.4307,,,
Catechin,,2.96 ± 0.01,1574 ± 79 mol^−1 dm^3 s^−1,
"CCCCCCCCCCCCc1ccc2c(=O)c(O)c(-c3cc(O)c(O)c(O)c3)oc2c1 [compound 9h, 3-Hydroxy-2-(3,4,5-trihydroxy-phenyl)-7-dodecyl-chromen-4-one]",62.1021,,,
O=c1c(O)c(-c2ccc(O)c(O)c2)oc2cc(O)ccc12 [Fisetin],,3.68 ± 0.03,1623 ± 199 mol^−1 dm^3 s^−1,
"CCCCCCCCc1ccc2c(=O)c(O)c(-c3cc(O)c(O)c(O)c3)oc2c1 [9f, 7-Octyl-3-hydroxy-2-(3,4,5-trihydroxy-phenyl)-chromen-4-one]",46.1879,,,
O=c1c(O)c(-c2ccc(O)cc2O)oc2cc(O)cc(O)c12 [Morin],,1.83 ± 0.01,10134 ± 459 mol^−1 dm^3 s^−1,"Reaction Stoichiometry for the reduction of galvinoxyl radical ([4]; listed as morin): 1.8; Second order rate constants (k2) for the reduction of galvinoxyl radical ([3]; listed as morin): 10134 mol^−1 dm^3 s^−1; reactivity with galvinoxyl (in words) [3]: fastest; increase in rate relative to kaempferol ([3]; fold increase, versus kaempferol): 8 fold"
"CCCCCCCCc1cc2c(=O)c(O)c(-c3cc(O)c(O)c(O)c3)oc2cc1CC [compound 12, 7-Ethyl-3-hydroxy-6-octyl-2-(3,4,5-trihydroxy-phenyl)-chromen-4-one]",53.98,,,
"Cc1c(C)c2c(c(C)c1O)CC[C@@](C)(CCC[C@H](C)CCC[C@H](C)CCCC(C)C)O2 [Vitamin E, d-(2R,4′R,8′R)-α-Tocopherol]",,2.14 ± 0.12,524 ± 48 mol^−1 dm^3 s^−1,TBARS production (Mean) ([1]; listed as da-toc): 19.9996 and 20
"CCCCCCCCCCc1ccc2c(=O)c(O)c(-c3cc(O)c(O)cc3O)oc2c1 [compound 13g, 3,2′,4′,5′-tetrahydroxy-7-decyl-flavone]",20.1401,,,membrane protection against TBARS production (in words) [1]: good membrane protection
O=c1c(O)c(-c2cc(O)c(O)c(O)c2)oc2cc(O)cc(O)c12 [Myricetin],147.6 and 147.6306,4.08 ± 0.01,14463 ± 1767 mol^−1 dm^3 s^−1,Reaction Stoichiometry for the reduction of galvinoxyl radical ([4]; listed as myricetin): 4.1; membrane protection against TBARS production (in words) [1]: almost no protection; reactivity with galvinoxyl (in words) [3]: fastest
COc1ccc(-c2oc3cc(O)cc(O)c3c(=O)c2O)cc1O [Tamarixetin],,1.14 ± 0.03,165 ± 20 mol^−1 dm^3 s^−1,decrease in rate of reaction with galvinoxyl relative to quercetin [3]: 15 fold
COc1ccc([C@@H]2CC(=O)c3c(O)cc(O)cc3O2)cc1O [Hesperitin],,0.20 ± 0.02,6 ± 0.5 mol^−1 dm^3 s^−1,reactivity with galvinoxyl (in words) [3]: little reactivity
O=c1c(O)c(-c2ccccc2)oc2cc(O)cc(O)c12 [Galangin],,1.01 ± 0.03,18 ± 1 mol^−1 dm^3 s^−1,reactivity with galvinoxyl (in words) [3]: reacted only very slowly
O=c1c(O)c(-c2cc(O)c(O)cc2O)oc2ccccc12 [Control C],186.6221,,,
